Entries after “also recorded” stand apart in the source; their conditions may differ. Where two headings read alike, the source gives them in different places.
Experiments:
[1] = biological target: T1, ROS methyltransferase (bovine retinal rod outer segment S-adenosyl-L-methionine-dependent methyltransferase) (Bos taurus, UniProt A0AAA9SD88); test: ROS methyltransferase assay: compounds as substrates (Km) or inhibitors (Ki) of AFC methylation; format: biochemical; conditions: for substrate activity for ROS methyltransferase / competitive inhibition of AFC methylation / inhibition of methyltransferase activity towards AFC: in words
T1 construct: utilizing ROS membranes as the source of methyltransferase enzyme; tissue Wanda Lawson Co., Lincoln, Nebr; (frozen bovine retinas); host or cells: bovine retinal rod outer segment (ROS) membranes
Experimental: Standard assays may be used to determine Km for substrates and Ki for inhibitors. […] The values of Ki and Km are calculated from kinetic assays by conventional means (Fersht, Enzyme Structure and Mechanism, W. H. Freeman and Co., New York, 1984). Examples are provided below to illustrate suitable assays, and are not intended to limit the invention.
One suitable assay of methylation functions uses bovine retinal rod outer segment (ROS) methyltransferase and a natural substrate, transducin. […] Another suitable assay uses N-acetyl-S-farnesylcysteine as a substrate for ROS methyltransferase.
The bovine retinal transducin γ subunit has a carboxyl-terminal --CAAX motif and undergoes a farnesylation reaction similar to that observed on ras (Lai et al., Proc. Natl. Acad. Sci. USA 87:7673, 1990; Fukada et al., Nature 346:658, 1990).
(§1) Frozen bovine retinas (Wanda Lawson Co., Lincoln, Nebr.) were used to prepare ROS membranes depleted of peripheral proteins using a modification of the procedure of Wessling-Resnick et al. (J. Biol. Chem. 262:3697, 1987). Briefly, ROS membranes were washed with low ionic strength buffer and 100μM GTP, resuspended in 50 mM Hepes-Na (pH 7.4), 100 mM NaCl, 5 mM MgCl2, 0.1 mM phenylmethylsulfonyl fluoride, 0.1 mM dithiothreitol (buffer A) and stored in small aliquots at -80° C. until used. Transducin was isolated by disrupting ROS membranes by passing the membranes through a narrow needle and washing the disrupted membranes in a series of centrifugation steps as described by Wessling-Resnick et al. (J. Biol. Chem. 262:3697, 1987). Finally transducin was eluted from the membranes with 100μM GTP. The transducin-enriched supernatant was concentrated using Centriprep (Amicon).
(§2) For initial studies, the reaction mixture contained 20 μCi of S-adenosyl-[methyl-^3 H] methionine ([^3 H]SAM) (2.34 μM, Amersham) and an aliquot of ROS (120μg of total protein) or of washed ROS membranes (80μg of total protein) in 100 μl of buffer A. Purified transducin was added to this mixture to a concentration of 5 μM. AFC, N-acetylcysteine, or AFC methylester was added in 2 μl of dimethyl sulfoxide to give a final concentration of 20 μM, and the reaction was carried out at 37° C.
The above-described methyltransferase assay was used to analyze the analogs described above.

[2] = tested on: methyltransferase activity in HL-60 cells; test: Methylation of AFC by activity present in HL-60 cell membrane; format: biochemical; conditions: in words
[3] = tested on: HL-60 cells; test: Inhibition of HL-60 cell proliferation (trypan blue dye exclusion count); format: cell-based; conditions: FIG. 2; in words
Experimental: FTA, FTP, AFHC and AFC were tested for their ability to inhibit cell growth as follows.
HL-60 cells (ATCC CCL 240, American Type Culture Collection, Rockville, Md.) which harbor an activated ras gene were grown in RPMI medium (Gibco/BRL, Bethesda, Md.) supplemented with 10-15% fetal calf serum, L-glutamine, penicillin and streptomycin. These cells were treated with various concentrations of FTA, FTP, AFHC, or AFC dissolved in dimethyl sulfoxide (DMSO) or with DMSO only (In all experiments the final DMSO concentration was 1% or less). Treated ans untreated cells were incubated under standard culture conditions for several days. Cells were counted manually at 24 hour intervals using a trypan blue dye exclusion assay which counts only live, intact cells.

[4] = biological target: T2, methyltransferase activity present in ROS membrane (Bos taurus, UniProt A0AAA9SD88); test: In vitro [3H]SAM methylation of proteins by ROS membrane methyltransferase; format: biochemical, bovine; conditions: in words
T2 construct: substrates transducin gamma, 23-29 kDa small G proteins, AFC
Experimental: as §1, §2
Incubation of bovine ROS with [^3 H]SAM results in the radioactive labeling of polypeptides with apparent molecular masses of 88, 60, 23-29, and 6 kDa. The methylation of the 88-kDa protein (α subunit of retinal phosphodiesterase) and of the 23- to 29-kDa polypeptides has already been reported (Swanson et al., J. Biol. Chem. 258:10599, 1983; Ota et al., J. Biol. Chem. 264:12879, 1989). The 6-kDa polypeptide coincides with Tγ in SDS/polyacrylamide gels. Moreover, incubation of purified transducin with extensively washed ROS and [^3 H]SAM results in the labeling of the 6-kDa polypeptide and the membrane-associated 23- to 29-kDa proteins. […]

[5] = Table 1, conventional inhibitors, read-out: Ki
[6] = ROS membranes as source of enzyme, read-out: KM for methylation
[7] = Table 1, substrates, read-out: Km
[8] = calculated, read-out: Ki for inhibition of AFC methylation

T1 sequence (A0AAA9SD88 1-284): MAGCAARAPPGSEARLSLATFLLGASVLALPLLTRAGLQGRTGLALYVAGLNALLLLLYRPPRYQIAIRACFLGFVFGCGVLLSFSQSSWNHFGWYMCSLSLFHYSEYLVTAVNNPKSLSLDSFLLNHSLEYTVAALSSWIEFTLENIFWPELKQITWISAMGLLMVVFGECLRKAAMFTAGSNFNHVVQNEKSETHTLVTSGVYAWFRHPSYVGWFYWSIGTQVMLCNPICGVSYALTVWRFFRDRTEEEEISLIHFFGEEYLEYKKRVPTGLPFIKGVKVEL
T2 sequence (A0AAA9SD88 1-284): as above

CC(C)=CCC/C(C)=C/CC/C(C)=C/CSCCC(N)=O [3-farnesylthiopropionamide]
status as conventional inhibitor (in place of Ki) ([1]; Table 1): inhibitor

CC(C)=CCC/C(C)=C/CC/C(C)=C/C[Se]CCC(=O)O
Ki [1]: 29 µM

CC(C)=CCC/C(C)=C/CC/C(C)=C/CS/C=C/C(=O)O [3-farnesylthio-trans-acrylic acid]
Ki [1, 5]: 37 µM

CC(C)=CCC/C(C)=C/CC/C(C)=C/C[S+]([O-])CC(=O)O (centres unmarked) [2-farnesylthioacetic acid sulfoxide]
Ki [1, 5]: < 10 µM

C=C(CSC/C=C(\C)CC/C=C(\C)CCC=C(C)C)C(=O)O [3-farnesylthio-2-methylenepropionic acid]
status as substrate (in place of Km) ([1]; Table 1): substrate

CC(=O)N[C@@H](CSCCC(C)CCCC(C)CCCC(C)C)C(=O)O (stereo partly drawn) [ATC, N-acetyl-S-(3,7,11-trimethyldodecanyl)-L-cysteine]
substrate activity for ROS methyltransferase [1]: inactive as a substrate; also recorded: lack of activity

CCCCCCC(CC(=O)O)SC/C=C(\C)CC/C=C(\C)CCC=C(C)C (centres unmarked) [3-farnesylthiononanoic acid]
status as conventional inhibitor (in place of Ki) ([1]; Table 1): inhibitor

CC(=O)N[C@@H](CSC/C=C(\C)CC/C=C(\C)CCC=C(C)C)C(=O)O [AFC, N-acetyl-S-farnesylcysteine]
methylation by activity in membrane of HL-60 cells [2]: can be methylated | Km [1, 6]: 23 µM | Km [1, 7]: 23 µM | substrate activity for ROS methyltransferase [1]: acts as a substrate; also recorded: serves as a substrate; also recorded: can serve as a substrate | inhibition of proliferation of HL-60 cells [3]: can inhibit proliferation | incorporation of label by [3H]SAM into proteins ([4]; ROS): reduced incorporation of label

CC(C)=CCC/C(C)=C/CC/C(C)=C/COCCC(=O)O [3-farnesyloxypropionic acid]
Km [1, 7]: 26 µM

CC(=O)N[C@@H](CCSC/C=C(\C)CC/C=C(\C)CCC=C(C)C)C(=O)O [AFHC, N-acetyl-S-farnesylhomocysteine]
Ki [1, 5]: 36.3 µM | Ki [1, 8]: 30.2 µM | competitive inhibition of AFC methylation [1]: potent competitive inhibitors | substrate activity for ROS methyltransferase [1]: not a substrate; also recorded: not substrates | inhibition of proliferation of HL-60 cells [3]: can inhibit proliferation

CC(C)=CCC/C(C)=C/CC/C(C)=C/CSC[C@H](NC(=O)c1ccccc1)C(=O)O [N-benzoyl-S-farnesylcysteine]
status as substrate (in place of Km) ([1]; Table 1): substrate

CC(C)=CCC/C(C)=C/CC/C(C)=C/CSCC(C)[N+](=O)[O-] (centres unmarked) [3-farnesylthio-2-nitropropane]
status as conventional inhibitor (in place of Ki) ([1]; Table 1): inhibitor

CC(C)=CCC/C(C)=C/CC/C(C)=C/CSC(C)CC(=O)O (centres unmarked) [3-farnesylthiobutyric acid]
Ki [1, 5]: 30 to 40 µM

CC(C)=CCC/C(C)=C/CC/C(C)=C/CSCC[N+](=O)[O-] [2-farnesylthio-1-nitroethane]
status as conventional inhibitor (in place of Ki) ([1]; Table 1): inhibitor

N-acetylgeranylgeranylcysteine
status as substrate (in place of Km) ([1]; Table 1): substrate

CC(=O)N[C@H](CSC/C=C(\C)CC/C=C(\C)CCC=C(C)C)C(=O)O [N-acetyl-S-farnesyl-D-cysteine]
Km [1, 7]: 42 µM

C[S+](CC[C@H](N)C(=O)O)C[C@H]1O[C@@H](n2cnc3c(N)ncnc32)[C@H](O)[C@@H]1O (stereo partly drawn) [AdoMet, S-adenosyl-L-methionine, reference compound]
Km ([1]; AFC system, ROS membranes, read-out: apparent KM): 2 µM

CC(=O)N[C@@H](CSC/C=C(\C)CCC=C(C)C)C(=O)O [AGC, N-acetyl-S-geranyl-L-cysteine]
status as substrate (in place of Km) ([1]; Table 1): substrate | substrate activity for ROS methyltransferase [1]: exceedingly weak substrate; also recorded: marginal activity

disodium 2-farnesylthioethyl phosphate
status as conventional inhibitor (in place of Ki) ([1]; Table 1): inhibitor

CSC(CSC/C=C(\C)CC/C=C(\C)CCC=C(C)C)=NO [2-farnesylthio-S-methyl]
status as conventional inhibitor (in place of Ki) ([1]; Table 1): inhibitor

Nc1ncnc2c1ncn2[C@@H]1O[C@H](CSCC[C@H](N)C(=O)O)[C@@H](O)[C@H]1O [SAH, reference compound]
inhibition of methyltransferase activity towards AFC [1]: inhibited | inhibition of methyltransferase activity present in ROS membrane [4]: inhibited

CC(C)=CCC/C(C)=C/CC/C(C)=C/CS/C=C\C(=O)O [3-farnesylthio-cis-acrylic acid]
Ki [1, 5]: 40 µM

CC(=O)N[C@@H](CS)C(=O)O [N-acetylcysteine, reference compound]
substrate activity for ROS methyltransferase [1]: not a substrate

CC(C)=CCC/C(C)=C/CC/C(C)=C/CSCC(N)C(=O)O (centres unmarked) [S-farnesylcysteine]
status as conventional inhibitor (in place of Ki) ([1]; Table 1): inhibitor

CC(C)=CCC/C(C)=C/CC/C(C)=C/CSCC(C)C(=O)O (centres unmarked) [2-methyl-3-farnesylthiopropionic acid]
Km [1, 7]: 21 µM

CC(=O)N[C@@H](C[S+]([O-])C/C=C(\C)CC/C=C(\C)CCC=C(C)C)C(=O)O (some centres unmarked) [AFCS, N-acetyl-S-oxo-farnesylcysteine]
Ki [1, 5]: 13.2 µM | Ki [1, 8]: 11.6 µM | methylation of AFCS ([1]; even at 500 μM): not methylated | competitive inhibition of AFC methylation [1]: potent competitive inhibitors | substrate activity for ROS methyltransferase [1]: lack of activity; also recorded: not substrates

3-farnesylthiocyclohexanecarboxylic acid
status as conventional inhibitor (in place of Ki) ([1]; Table 1): inhibitor

Nc1ncnc2c1ncn2[C@@H]1O[C@H](C[C@@H](N)CC[C@H](N)C(=O)O)[C@@H](O)[C@H]1O [sinefungin, reference compound]
inhibition of methyltransferase activity towards AFC [1]: inhibited | inhibition of methyltransferase activity present in ROS membrane [4]: inhibited

CC(C)=CCC/C(C)=C/CC/C(C)=C/CSCCC#N [3-farnesylthiopropionitrile]
status as conventional inhibitor (in place of Ki) ([1]; Table 1): inhibitor

CC(C)=CCC/C(C)=C/CC/C(C)=C/CSCCC(=O)O [FTP, 3-farnesylthiopropionic acid]
Km [1, 6]: 13.7 µM | Km [1, 7]: 14 µM | substrate activity for ROS methyltransferase [1]: active substrate; also recorded: also a substrate | inhibition of proliferation of HL-60 cells [3]: can inhibit proliferation

CC(=O)NC(C[Se]C/C=C(\C)CC/C=C(\C)CCC=C(C)C)C(=O)O (racemic) [N-acetyl-Se-farnesyl-D,L-cysteine]
Km ([1]; Table 1, substrates): 51 µM
